These are literature values, as cited in patent US20120302639A1, “OMEGA 3 FORMULATIONS FOR TREATMENT OF RISK FACTORS FOR CARDIOVASCULAR DISEASE AND PROTECTION AGAINST SUDDEN DEATH” (PIVOTAL THERAPEUTICS INC., priority 2011, published 2012).

The conditions of the data set: ALOGPS, as reported by Tetko et al. 2005.

Regarding `CC/C=C\C/C=C\C/C=C\C/C=C\C/C=C\C/C=C\CCC(=O)O` [DHA, Docosahexaenoic acid], the “theoretical Log P” value is reported as 6.83. Consider `CC/C=C\C/C=C\C/C=C\C/C=C\C/C=C\CCCC(=O)O` [EPA, Eicosapentaenoic acid], for which the “theoretical Log P” value is listed as 6.53.
